How the values were obtained:
Test in all cases: relative viability (nuclei count vs DMSO), 5 days (fraction); higher = more cells survive
IMD-0354 + Lapatinib = compound: O=C(Nc1cc(C(F)(F)F)cc(C(F)(F)F)c1)c1cc(Cl)ccc1O [IMD-0354] + CS(=O)(=O)CCNCc1ccc(-c2ccc3ncnc(Nc4ccc(OCc5cccc(F)c5)c(Cl)c4)c3c2)o1 [Lapatinib] (partner 2 µM)
Summary of the method: (§1)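 Lung cancer cell lines in 1536-well plates got either a single drug or a fixed anchor-drug dose together with five library-drug doses (not always all listed) in √10 steps, by pin tool, on the day after seeding. Nuclei were counted after 5 days, and relative viability is the treated-to-vehicle ratio of nuclei counts. Values are medians of duplicate plates.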

IMD-0354 + AZD7762 = compound: O=C(Nc1cc(C(F)(F)F)cc(C(F)(F)F)c1)c1cc(Cl)ccc1O [IMD-0354] + NC(=O)Nc1cc(-c2cccc(F)c2)sc1C(=O)N[C@H]1CCCNC1 [AZD7762] (partner 0.2 µM)
Summary of the method: as §1

IMD-0354 + Luminespib = compound: O=C(Nc1cc(C(F)(F)F)cc(C(F)(F)F)c1)c1cc(Cl)ccc1O [IMD-0354] + CCNC(=O)c1noc(-c2cc(C(C)C)c(O)cc2O)c1-c1ccc(CN2CCOCC2)cc1 [Luminespib] (partner 0.01 µM)
Summary of the method: as §1

CX-5461 + OSI-027 = compound: Cc1cnc(CNC(=O)c2c(=O)c3ccc(N4CCCN(C)CC4)nc3n3c2sc2ccccc23)cn1 [CX-5461] + COc1cccc2cc(-c3nc([C@H]4CC[C@H](C(=O)O)CC4)n4ncnc(N)c34)[nH]c12 [OSI-027] (partner 0.5 µM)
Summary of the method: as §1

Row | Cell Line | relative viability (IMD-0354 + Lapatinib; first compound 0.04 µM) | relative viability (IMD-0354 + Lapatinib; first compound 0.1265 µM) | relative viability (IMD-0354 + Lapatinib; first compound 0.4 µM) | relative viability (IMD-0354 + Lapatinib; first compound 1.265 µM) | relative viability (IMD-0354 + Lapatinib; first compound 4 µM) | relative viability (IMD-0354 + AZD7762; first compound 0.04 µM) | relative viability (IMD-0354 + AZD7762; first compound 0.1265 µM) | relative viability (IMD-0354 + AZD7762; first compound 0.4 µM) | relative viability (IMD-0354 + AZD7762; first compound 1.265 µM) | relative viability (IMD-0354 + AZD7762; first compound 4 µM) | relative viability (IMD-0354 + Luminespib; first compound 0.04 µM) | relative viability (IMD-0354 + Luminespib; first compound 0.1265 µM) | relative viability (IMD-0354 + Luminespib; first compound 0.4 µM) | relative viability (IMD-0354 + Luminespib; first compound 1.265 µM) | relative viability (IMD-0354 + Luminespib; first compound 4 µM) | relative viability (CX-5461 + OSI-027; first compound 0.01 µM) | relative viability (CX-5461 + OSI-027; first compound 0.03162 µM) | relative viability (CX-5461 + OSI-027; first compound 0.1 µM) | relative viability (CX-5461 + OSI-027; first compound 0.3162 µM) | relative viability (CX-5461 + OSI-027; first compound 1 µM)
1 | IA-LM | 0.628 | 0.743 | 0.412 | 0.285 | 0.235 |  |  |  |  |  |  |  |  |  |  |  |  |  |  | 
2 | LCLC-103H |  |  |  |  |  | 0.952 | 0.907 | 0.554 | 0.47 | 0.257 | 1.1 | 0.894 | 0.744 | 0.432 | 0.222 | 0.458 | 0.433 | 0.434 | 0.446 | 0.384
3 | NCI-H441 |  |  |  |  |  | 1.4 | 1.31 | 0.664 | 0.24 | 0.293 | 0.279 | 0.409 | 0.234 | 0.214 | 0.2 | 0.696 | 0.659 | 0.607 | 0.534 | 0.408
4 | NCI-H520 | 0.932 | 0.792 | 0.46 | 0.197 | 0.197 |  |  |  |  |  | 0.199 | 0.21 | 0.198 | 0.243 | 0.225 | 0.193 | 0.247 | 0.24 | 0.197 | 0.266
5 | NCI-H522 |  |  |  |  |  | 1.05 | 0.815 | 0.702 | 0.766 | 0.461 | 1.03 | 0.908 | 1.2 | 0.813 | 0.505 | 0.739 | 0.771 | 0.77 |  | 0.669
6 | NCI-H661 | 0.466 | 0.458 | 0.477 | 0.538 | 0.273 |  |  |  |  |  | 0.971 | 0.946 | 0.364 | 0.254 | 0.217 | 0.654 | 0.698 | 0.615 | 0.834 | 0.387
7 | NCI-H1299 | 0.844 | 0.964 | 0.462 | 0.221 | 0.185 |  |  |  |  |  |  |  |  |  |  |  |  |  |  | 
8 | NCI-H1563 | 1.18 | 1.01 | 0.903 | 0.44 | 0.415 |  |  |  |  |  | 0.232 | 0.57 | 0.5 | 0.492 | 0.206 | 0.715 | 0.745 | 0.691 | 0.771 | 0.52
9 | NCI-H1648 |  |  |  |  |  | 0.616 | 0.715 | 0.526 | 0.705 | 0.297 |  |  |  |  |  |  | 0.256 | 0.277 | 0.27 | 0.27
10 | NCI-H1650 | 0.864 | 0.757 | 0.481 | 0.211 | 0.184 |  |  |  |  |  | 0.215 | 0.208 | 0.171 | 0.196 | 0.176 | 0.678 | 0.643 | 0.283 | 0.497 | 0.182
11 | NCI-H1703 | 0.936 | 1.03 | 0.475 | 0.202 | 0.21 | 0.124 | 0.0845 | 0.141 | 0.142 | 0.117 |  |  |  |  |  |  |  |  |  | 
12 | NCI-H2009 | 0.82 | 0.832 | 0.647 | 0.134 | 0.155 |  |  |  |  |  | 1.09 | 0.923 | 0.675 | 0.148 | 0.159 | 0.696 | 0.651 | 0.471 | 0.697 | 0.516
13 | NCI-H2023 | 0.717 | 0.841 | 0.662 | 0.0897 | 0.084 |  |  |  |  |  | 1.03 | 0.799 | 0.292 | 0.0846 | 0.121 | 0.387 | 0.386 | 0.184 | 0.329 | 0.0856
14 | NCI-H2228 | 1.23 | 1 | 0.632 | 0.306 | 0.241 |  |  |  |  |  | 0.102 | 0.169 | 0.109 | 0.128 | 0.145 | 0.629 | 0.428 | 0.361 | 0.272 | 0.13
15 | NCI-H2342 |  |  |  |  |  | 0.539 | 0.509 | 0.469 | 0.31 | 0.385 | 0.771 | 0.746 | 0.629 | 0.699 | 0.388 | 0.633 | 0.599 | 0.584 | 0.642 | 0.598
16 | SK-LU-1 | 1.07 | 0.851 | 0.376 | 0.47 | 0.27 |  |  |  |  |  | 0.178 | 0.169 | 0.244 | 0.149 | 0.169 | 0.347 | 0.321 | 0.386 |  | 0.203
17 | SK-MES-1 | 0.434 | 0.528 | 0.377 | 0.369 | 0.236 |  |  |  |  |  | 0.904 | 1.01 | 0.437 | 0.169 | 0.233 | 0.586 | 0.57 | 0.582 | 0.607 | 0.372
18 | SW 900 |  |  |  |  |  | 0.649 | 0.693 | 0.441 | 0.24 | 0.254 | 0.187 | 0.162 | 0.178 | 0.143 | 0.161 | 0.423 | 0.601 | 0.488 | 0.386 | 0.271
19 | SW 1573 | 1.07 | 1.25 | 0.362 | 0.628 | 0.14 |  |  |  |  |  | 0.189 | 0.209 | 0.218 | 0.138 | 0.127 | 0.61 | 0.621 | 0.401 | 0.477 | 0.179
20 | UMC-11 | 1.07 | 0.939 | 0.622 | 0.239 | 0.232 |  |  |  |  |  | 1.1 | 0.888 | 0.434 | 0.27 | 0.273 | 0.542 | 0.431 | 0.389 | 0.475 | 0.274

From the supplement of paper PMC10307832
